Results on 23 compounds are retold here after ChEMBL document CHEMBL5154666, “Small molecules with tetrahydroquinoline-containing Povarov scaffolds as inhibitors disrupting the Protein-RNA interaction of LIN28-let-7” (Eur J Med Chem, 2022).

A value given as a limit tells only on which side of the number the result lay.

The subject of assay [1] is JAR. Description: Antiproliferative activity against human JAR cells assessed as reduction in cell viability at 10 uM by MTT assay. Format: functional. (In general: Tetrazolium assays rely on reduction of a dye to a coloured formazan, in cell work by metabolically active cells.)
Assay [2] is described as follows: Inhibition of Cy3-labeled mouse preE-let-7f-1 miRNA binding to human LIN28A (16 to 187 residues) expressed in Escherichia coli BL21 (DE3) at 75 uM preincubated for 2 hrs followed by miRNA addition and measured after 15 mins by electrophoretic mobility shift assay relative to control. A general note: In EMSA bound probe runs differently from free probe, usually more slowly.

Assay [3] can be described thus: Inhibition of Cy3-labeled mouse preE-let-7f-1 miRNA binding to human LIN28A (16 to 187 residues) expressed in Escherichia coli BL21 (DE3) preincubated for 2 hrs followed by miRNA addition and measured after 15 mins by electrophoretic mobility shift assay.
Assay [4] is described as follows: Inhibition of FAM-labeled mouse preE-let-7f-1 miRNA binding to human LIN28A (16 to 187 residues) expressed in Escherichia coli BL21 (DE3) by fluorescence polarization assay. (In general: Polarisation of emitted light reports the rotation of a fluorescent probe.)
Assay [5] is described as follows: Inhibition of FAM-labeled mouse preE-let-7f-1 miRNA binding to human LIN28A (16 to 187 residues) expressed in Escherichia coli BL21 (DE3) preincubated for 30 mins followed by miRNA addition by fluorescence polarization assay.

As for `CCOc1cccc2c1N[C@@H](c1ccc(C(=O)O)[nH]1)[C@H]1CC=C[C@@H]21`, in assay [1], the inhibition at 10 µM worked out at 23%.

`CC(C)Oc1cccc2c1N[C@@H](c1ccc(C(=O)O)cc1)[C@H]1CC=C[C@@H]21`: the inhibition in assay [2] was under 5%.

Take `CC(=O)c1ccc2c(c1)[C@@H]1C=CC[C@@H]1[C@H](c1ccc(C(=O)O)cc1)N2`: the inhibition in assay [2] is under 5%.

With `O=C(O)c1ccc([C@@H]2Nc3c(Cl)cc(Cl)cc3[C@@H]3C=CC[C@@H]32)cc1`, the inhibition in assay [2] was found to be 34%.

On to `CCOc1cccc2c1N[C@@H](c1ccc(C(=O)O)cc1)[C@H]1CC=C[C@@H]21`, for which, in assay [2], the inhibition worked out at 53%. The 50% inhibitory concentration (IC50) in assay [3] came out at 41.6 µM; in assay [4], 50 µM. Also, the inhibition at 10 µM in assay [1] was under 10%.

For `CCOc1cccc2c1N[C@@H](c1ccc(C(=O)OC)cc1)[C@H]1CC=C[C@@H]21`, in assay [2], the inhibition was under 5%.

Turning to `COc1cc2c(c(OC)c1OC)[C@@H]1C=CC[C@@H]1[C@H](c1ccc(C(=O)O)cc1)N2`, the inhibition in assay [2] is under 5%.

`CCOc1cccc2c1N[C@@H](c1cccc(O)c1)[C@H]1CC=C[C@@H]21`: in assay [2], the inhibition is under 5%.

For the compound `COc1cccc2c1N[C@@H](c1ccc(C(=O)O)cc1)[C@H]1CC=C[C@@H]21`, the inhibition in assay [2] is under 5%.

For the compound `CCOC(=O)[C@@H]1Nc2c(OCC)cccc2[C@@H]2C=CC[C@H]12`, the inhibition in assay [2] was under 5%.

For `CCOc1cccc2c1N[C@@H](c1ccc([N+](=O)[O-])cc1)[C@H]1CC=C[C@@H]21`, the inhibition in assay [2] is under 5%.

The compound `CCOc1cccc2c1N[C@H](c1ccc(C(=O)O)cc1)[C@@H]1CC=C[C@H]21` returned an IC50 in assay [4] of 40 µM.

With `CCOc1cccc2c1N(C(C)=O)[C@@H](c1ccc(C(=O)O)cc1)[C@H]1CCCN(C(=O)OC(C)(C)C)[C@@H]21`, in assay [1], the inhibition at 10 µM worked out at 35%.

`CCOc1cccc2c1N[C@@H](c1cccc(C(=O)O)c1)[C@H]1CC=C[C@@H]21`: in assay [2], the inhibition stood at 86%. Further, the IC50 in assay [3] was 21.9 µM; in assay [5] it was 4 µM. Moreover, in assay [1], the inhibition at 10 µM was under 10%.

With `CCOc1cccc2c1N[C@@H](c1ccc(C(F)(F)F)cc1)[C@H]1CC=C[C@@H]21`, the inhibition in assay [2] was under 5%.

Consider `CCOc1cccc2c1N[C@@H](c1ccc(C#N)cc1)[C@H]1CC=C[C@@H]21`, for which the inhibition in assay [2] was under 5%.

As to `N#Cc1ccc2c(c1)[C@@H]1C=CC[C@@H]1[C@H](c1ccc(C(=O)O)cc1)N2`, the inhibition in assay [2] was under 5%.

With `CCOc1cccc2c1N[C@@H](c1cccnc1)[C@H]1CC=C[C@@H]21`, in assay [2], the inhibition was under 5%.

For `CCOc1cccc2c1N(C(C)=O)[C@@H](c1cccc(C(=O)O)c1)[C@H]1CC=C[C@@H]21`, the inhibition at 10 µM in assay [1] came to 31%.

As to `O=C(O)c1cccc([C@@H]2Nc3c(OC(F)(F)F)cccc3[C@@H]3C=CC[C@@H]32)c1`, in assay [1], the inhibition at 10 µM worked out at 20%.

As for `CC(=O)c1ccc2c(c1)N[C@@H](c1ccc(C(=O)O)cc1)[C@H]1CC=C[C@@H]21`, in assay [2], the inhibition was under 5%.

Regarding `CCOc1cccc2c1N(C(C)=O)[C@@H](c1ccc(C(=O)O)cc1)[C@H]1CCCN[C@@H]21`, the inhibition at 10 µM in assay [1] amounted to 19%.

Take `CCOc1cccc2c1N[C@@H](C(=O)O)[C@H]1CC=C[C@@H]21`: in assay [2], the inhibition was 86%. The IC50 in assay [3] worked out at 21.5 µM. In assay [1], the inhibition at 10 µM is under 10%.

A word on the inhibition: it is the change of the read-out against control, counted positive when it falls. A word on the IC50: it is the concentration needed to halve the response being measured.
